Test results taken from ChEMBL document CHEMBL1129745, “Synthesis and antibacterial activity of new tropone-substituted phenyloxazolidinone antibacterial agents 1. Identification of leads and importance of the tropone substitution pattern” (1996).
In brackets after ≈: the same amount, converted by molar mass.

How the values were obtained:
Format in all cases: functional
Enterococcus faecalis = assay: Compound was tested in vitro for antibacterial activity against Enterococcus faecalis UC 9217.
Escherichia coli = assay: Compound was tested in vitro for antibacterial activity against Escherichia coli extracts, using cell free prokaryotic transcription coupled translation (T/T) assay.; parameters: concentration or dose not given beside the values; conditions: dose or concentration not given here
Mus musculus = assay: Amount of drug required (mg/kg body weight/dose) to cure 50% of infected mice subjected to a lethal systemic infection with Staphylococcus aureus UC 9213
[1] = tested on: Mycobacterium tuberculosis; assay: Compound was tested in vitro for antibacterial activity against Mycobacterium tuberculosis H37 Rv.
[2] = tested on: Staphylococcus epidermidis; assay: Compound was tested in vitro for antibacterial activity against methicillin-resistant Staphylococcus epidermidis UC 12084
Streptococcus pneumoniae = assay: Compound was tested in vitro for antibacterial activity against Streptococcus pneumoniae UC 9912.
Staphylococcus aureus [3] = assay: Compound was tested in vitro for antibacterial activity against methicillin-resistant Staphylococcus aureus UC 6685.
Staphylococcus aureus [4] = assay: Compound was tested in vitro for antibacterial activity against methicillin-susceptible Staphylococcus aureus UC 9213.

SMILES | MIC (Enterococcus faecalis) [µg/mL] | inhibition (Escherichia coli) [%] | ED50 (Mus musculus) [mg/kg] | MIC [1] [µg/mL] | MIC [2] [µg/mL] | MIC (Streptococcus pneumoniae) [µg/mL] | MIC (Staphylococcus aureus [3]) [µg/mL] | MIC (Staphylococcus aureus [4]) [µg/mL]
COc1cc(-c2ccc(N3CC(CNC(C)=O)OC3=O)cc2)cccc1=O (stereo not drawn) | 32 (≈ 86.9 µM) | 39 | > 20 | ≤ 16 | 8 (≈ 21.7 µM) | 4 (≈ 10.9 µM) | 16 (≈ 43.4 µM) | 64 (≈ 174 µM)
C=CCNc1ccc(-c2ccc(N3CC(CNC(C)=O)OC3=O)cc2)ccc1=O (stereo not drawn) | 1 (≈ 2.54 µM) | 81 | 12.7 |  | 0.5 (≈ 1.27 µM) | 0.5 (≈ 1.27 µM) | 1 (≈ 2.54 µM) | 2 (≈ 5.08 µM)
CC(=O)NCC1CN(c2ccc(-c3ccc(N4CCOCC4)c(=O)cc3)cc2)C(=O)O1 (stereo not drawn) | 1 (≈ 2.36 µM) | 81 |  | ≤ 1 | 0.5 (≈ 1.18 µM) | 0.5 (≈ 1.18 µM) | 2 (≈ 4.72 µM) | 2 (≈ 4.72 µM)
C=CCOc1ccc(-c2ccc(N3CC(CNC(C)=O)OC3=O)cc2)ccc1=O (stereo not drawn) | 2 (≈ 5.07 µM) | 74 | 7.9 |  | 0.5 (≈ 1.27 µM) | 0.25 (≈ 0.634 µM) | 1 (≈ 2.54 µM) | 4 (≈ 10.1 µM)
COc1ccc(-c2ccc(N3CC(CNC(C)=O)OC3=O)cc2)ccc1=O (stereo not drawn) | 1 (≈ 2.71 µM) | 89 |  | ≤ 1 | 0.5 (≈ 1.36 µM) | 0.25 (≈ 0.679 µM) | 1 (≈ 2.71 µM) | 2 (≈ 5.43 µM)
C/N=c1\ccc(-c2ccc(N3CC(CNC(C)=O)OC3=O)cc2)ccc1O (stereo not drawn) | 1 (≈ 2.72 µM) |  | 4.6 |  | 0.25 (≈ 0.68 µM) | 0.25 (≈ 0.68 µM) | 1 (≈ 2.72 µM) | 2 (≈ 5.44 µM)
C=CCNc1cccc(-c2ccc(N3CC(CNC(C)=O)OC3=O)cc2)cc1=O (stereo not drawn) | 1 (≈ 2.54 µM) | 80 | 12.5 |  | 0.5 (≈ 1.27 µM) | 0.5 (≈ 1.27 µM) | 1 (≈ 2.54 µM) | 2 (≈ 5.08 µM)
COc1cccc(-c2ccc(N3CC(CNC(C)=O)OC3=O)cc2)cc1=O (stereo not drawn) | 2 (≈ 5.43 µM) | 90 |  | ≤ 1 | 0.5 (≈ 1.36 µM) | 0.5 (≈ 1.36 µM) | 2 (≈ 5.43 µM) | 4 (≈ 10.9 µM)
C#CCNc1cccc(-c2ccc(N3CC(CNC(C)=O)OC3=O)cc2)cc1=O (stereo not drawn) | 1 (≈ 2.55 µM) | 76 | 3.4 | ≤ 1 | 1 (≈ 2.55 µM) | 0.5 (≈ 1.28 µM) | 1 (≈ 2.55 µM) | 2 (≈ 5.11 µM)
CN[C@H](CC(C)C)C(=O)N[C@H]1C(=O)N[C@@H](CC(N)=O)C(=O)N[C@H]2C(=O)N[C@H]3C(=O)N[C@H](C(=O)N[C@H](C(=O)O)c4cc(O)cc(O)c4-c4cc3ccc4O)[C@H](O)c3ccc(c(Cl)c3)Oc3cc2cc(c3O[C@@H]2O[C@H](CO)[C@@H](O)[C@H](O)[C@H]2O[C@H]2C[C@](C)(N)[C@H](O)[C@H](C)O2)Oc2ccc(cc2Cl)[C@H]1O [VANCOMYCIN] |  |  |  |  |  | 0.5 (≈ 0.345 µM) |  | 
CC(=O)NC[C@H]1CN(c2ccc(C(C)=O)cc2)C(=O)O1 (racemic) [DUP-721] | 8 (≈ 29 µM) | 45 | 9.4 | ≤ 16 | 2 (≈ 7.24 µM) | 2 (≈ 7.24 µM) | 4 (≈ 14.5 µM) | 8 (≈ 29 µM)
